In patent US7312248B2, “Control of parasites in animals by the use of novel trifluoromethanesulfonanilide oxime ether derivatives” (Schering-Plough Animal Health Corporation, priority 2004, dated 2007):
Like-named read-outs stand apart in the source and are kept apart here.

Legend:
Assay type in all cases: in vivo
[1] = tested on: cat flea (Ctenocephalides felis); experiment: Ctenocephalides felis adulticide assay: dose response (LC50)
From the text: c) Ctenocephalides felis Adulticide Assay: C. felis Dose Response
The purpose of this example was to determine the LC50 when cat fleas were contacted with a glass surface treated with sample compounds or formulations prepared as described above. Mortality of fleas was defined as follows: fleas were considered dead if they didn't move or were on their sides and unable to walk or right themselves. LC50: Lethal Concentration 50—concentration of glass surface treatment at which 50% of the cat fleas were killed. The test species was the cat flea (Ctenocephalides felis). The strain used was obtained from external suppliers as pupae and held in the laboratory under testing conditions until the adults had emerged. Fifteen (15) fleas were used in a minimum of four replicates for each dose level (total of 60 fleas per dose level). The insects were selected to be in the adult life stage, aged between 3 and 7 days post emergence.
The compounds to be tested were dissolved in acetone just prior to testing. Samples of compounds were stored in a refrigerator (5±1° C.) unless otherwise specified. During the mortality testing, the temperature was maintained at 25+1° C. Humidity was maintained at 75±5%. The base (area=159 mm^2) of a 100 mL glass Erlenmeyer (conical) flask provided the treatment surface. Flasks were pretreated with Coatasil™ glass treatment to maximise bio-availability of test compounds by preventing them from binding to the glass surface.
Six dose levels (concentrations) of test sample, in the form of a serial dilution, were derived from a pilot study and covered a range that produced very low to very high mortality. The base of the 100 mL Erlenmeyer flask was treated with 0.5 mL of test sample in acetone and gently swirled. This volume was sufficient to cover the base of the flask. Flasks were left to dry for 24 hours before flea exposure. Adult cat fleas were lightly anaesthetised by cooling and then placed into a sorting chamber, which allowed fleas to revive and jump into the Erlenmeyer flasks. Fifteen (15)adult cat fleas were collected in each flask. The top of the flasks were then covered in Parafilm™ and small holes made to allow gas exchange. A 0.5 mL volume of acetone was applied to the base of an Erlenmeyer flask and the testing proceeded in the same manner described above. Cat fleas in the treatment containers were held under testing conditions for 24 hours. Mortality resulting from the treatments was recorded at 8 and 24 hours.

[2] = tested on: Brown Dog Tick (Rhipicephalus sanguineus); experiment: Dose response protocol for topical application on brown dog ticks (LD50); settings: 24 h mortality
Description: e) Dose response protocol for topical application on brown dog ticks (Rhipicephalus sanguineus): The test determines the level of insecticidal activity of sample compounds or formulations when applied topically on brown dog ticks. Sample compounds were stored prior to use in a freezer (−5±1° C.), unless otherwise specified.
• Mortality: A tick is defined as dead after it gives no apparent response when touched lightly or gently breathed upon, while observed for 30 seconds. • LD50 (Lethal Dose 50): The dose of a topically applied treatment at which 50% of the dog ticks are killed. • Reference compound: To assess an experimental compound for significant acaricidal activity a single dose level is chosen, which is based upon known results from previous experiments using a commercially available active i.e., a reference compound. The reference compound selected is one in common use, and one that has a similar mode of action against the Brown Dog Tick (i.e., the test species). • Recovery container: A recovery container consists of a 500 ml round plastic container measuring 115 mm diameter and 70 mm height, with a tight fitting lid that has 10 small (˜1 mm) holes inserted for air exchange. A 90 mm diameter piece of filter paper was placed on the bottom of the container and moistened with 1 mL of de-stilled water.
Adult, mixed sex, Brown Dog Ticks (Rhipicephalus sanguineus) were reared as follows: (i) cultured, (ii) transferred unfed, to a testing laboratory, and (iii) then maintained under controlled conditions (i.e., temp. 18°±2° C., humidity 75±5% RH). The ticks used were selected for vigor prior to testing, i.e., capable of actively walking and responsive to being touched or gently breathed upon.
During the testing, the temperature was maintained at 25±1° C., and the humidity was ambient. Seven dose levels (concentrations) of sample compound, in the form of serial dilutions in acetone, were derived from a pilot study and covered a range that produced very low to very high mortality. Groups of ten ticks were treated topically (on the abdomen) with 1 μL of a single dose level of the sample compound. Each test was replicated four times, i.e., employing a total of 40 ticks per dose level of each sample compound. As a control, ten ticks were treated with solvent only (acetone) for each test. Following the treatment, the ticks were held in recovery containers maintained under appropriate rearing conditions for 24 hours. Mortality resulting from the treatments was recorded at 24 hours. […] Press, London (1971).]

[3] = tested on: Brown Dog Tick (Rhipicephalus sanguineus); experiment: Rapid screening protocol for topical application on brown dog ticks; settings: 48 h; Laboratory 2 F data
[4] = tested on: cat flea (Ctenocephalides felis); experiment: whole plant or invertebrate; settings: Ctenocephalides felis
In short: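 Single-dose screen at 1.26 μg/cm^2: acetone solution dried for 24 h on a Coatasil-treated 159 mm^2 flask base, then 15 adult cat fleas aged 3-7 days per flask, four or more replicates, acetone control. Percent dead, meaning not moving or unable to right themselves, recorded after 8, 24 and/or 48 h at 25 °C and 75% RH.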

[5] = tested on: Haemonchus contortus; experiment: Haemonchus contortus larvacidal (larval development) assay; settings: 144 h, read-out: Haemonchus contortus LD99
In short: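 Nematode eggs placed on agar containing compound (12 two-fold dilutions, final 0.024–50 μg/ml) and left 6 days to develop to L3. LD99 is the lowest concentration inhibiting development of 99% of larvae, derived from well titre (2^n−1) and top concentration.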

[6] = 8 h, read-out: C. felis Mortality (%) 8 h, 8 h, Laboratory 2 B data
[7] = 24 h, read-out: C. felis Mortality (%) 24 h, 24 h, Laboratory 2 B data
[8] = 24 h, read-out: C. felis Mortality (%) 24 h, 24 h, Laboratory 1 A data
[9] = 48 h, read-out: C. felis Mortality (%) 48 h, 48 h, Laboratory 2 B data

SMILES	C. felis LC50 ([1]; Laboratory 2 D data)	R. sanguineus LD50 [2]	R. sanguineus Mortality (%) 48 h [3]	mortality at 1.26 µg/cm2, 1.26 µg/cm2 [4, 6]	mortality at 1.26 µg/cm2, 1.26 µg/cm2 [4, 7]	C. felis LC50 ([1]; Laboratory 1 C data)	IC99 [5]	mortality at 1.26 µg/cm2, 1.26 µg/cm2 [4, 8]	mortality at 1.26 µg/cm2, 1.26 µg/cm2 [4, 9]
C/C(=N\OC(C)(C)C)c1cc(Cl)ccc1NS(=O)(=O)C(F)(F)F [Compound 223]	0.04^D μg/cm^2	1.4 μg/tick	97%	92%	100%	–	–	–	–
C#CCO/N=C(\C)c1cc(Cl)ccc1NS(=O)(=O)C(F)(F)F [Compound 202]	0.01^D μg/cm^2	0.9 μg/tick	100%	100%	100%	–	–	–	–
COCCO/N=C(\C)c1cc(Cl)ccc1NS(=O)(=O)C(F)(F)F [Compound 185, N-{4-chloro-2-[1-(2-methoxyethoxyimino)ethyl]phenyl}trifluoromethanesulfonamide]	0.01 μg/cm^2	0.7 μg/tick	100%	100%	100%	0.2 μg/cm^2	–	–	–
C/C(=N\Oc1ccc(F)cc1)c1cc(Cl)ccc1NS(=O)(=O)C(F)(F)F [Compound 129, N-{4-chloro-2-[1-(4-fluorophenoxyimino)ethyl]phenyl}trifluoromethanesulfonamide]	0.02 μg/cm^2	1.3 μg/tick	–	–	–	0.05 μg/cm^2	1.9 µg/mL	100%	–
CCC/C(=N\OCC)c1cc(Cl)ccc1NS(=O)(=O)C(F)(F)F [Compound 193, N-[4-chloro-2-(1-ethoxyiminobutyl)phenyl]trifluoromethanesulfonamide]	0.01^D μg/cm^2	1.2 μg/tick	95%	88%	100%	–	–	–	–
C=CCO/N=C(\CC)c1cc(Cl)ccc1NS(=O)(=O)C(F)(F)F [Compound 156, N-[2-(1-allyloxyiminopropyl)-4-chlorophenyl]trifluoromethanesulfonamide]	0.02 μg/cm^2	0.6 μg/tick	95%	–	–	0.4 μg/cm^2	–	100%	–
CC/C(=N\OCC1CCCO1)c1cc(Cl)ccc1NS(=O)(=O)C(F)(F)F (stereo not shown) [Compound 205]	0.02^D μg/cm^2	3.1 μg/tick	100%	97%	98%	–	–	–	–
CC/C(=N\OCc1cccs1)c1cc(Cl)ccc1NS(=O)(=O)C(F)(F)F [Compound 207, N-{4-chloro-2-[1-(thiophen-2-ylmethoxyimino)propyl]phenyl}trifluoromethanesulfonamide]	0.007^D μg/cm^2	2.5 μg/tick	100%	98%	100%	–	–	–	–
CC/C(=N\OC(C)(C)C)c1cc(Cl)ccc1NS(=O)(=O)C(F)(F)F [Compound 224]	0.04^D μg/cm^2	1.5 μg/tick	95%	83%	100%	–	–	–	–
CC(C)/C(=N\Oc1ccc(Cl)cc1)c1cc(Cl)ccc1NS(=O)(=O)C(F)(F)F [Compound 215, N-{4-chloro-2-[1-(4-chlorophenoxyimino)-2-methylpropyl]phenyl}trifluoromethanesulfonamide]	0.07^D μg/cm^2	1.7 μg/tick	87%	82%	100%	–	–	–	–
C/C(=N\OCC1CCCC1)c1cc(Cl)ccc1NS(=O)(=O)C(F)(F)F [Compound 189]	0.01^D μg/cm^2	2.2 μg/tick	100%	91%	97%	–	–	–	–
C/C(=N\OCc1ccc(Cl)s1)c1cc(Cl)ccc1NS(=O)(=O)C(F)(F)F [Compound 194, N-{4-chloro-2-[1-(5-chlorothiophen-2-ylmethoxyimino)ethyl]phenyl}trifluoromethanesulfonamide]	0.02^D μg/cm^2	2.0 μg/tick	100%	100%	100%	–	–	–	–
CC/C(=N\OCC1CC1)c1cc(Cl)ccc1NS(=O)(=O)C(F)(F)F [Compound 196, N-[4-chloro-2-(1-cyclopropylmethoxyiminopropyl)phenyl]trifluoromethanesulfonamide]	0.008^D μg/cm^2	1.2 μg/tick	100%	96%	100%	–	–	–	–
CC/C(=N\OCCC(C)C)c1cc(Cl)ccc1NS(=O)(=O)C(F)(F)F [Compound 247]	0.1^D μg/cm^2	4.6 μg/tick	–	–	100%	–	–	–	100%
CC/C(=N\OC(C)CC)c1cc(Cl)ccc1NS(=O)(=O)C(F)(F)F (stereo not shown) [Compound 243]	0.1^D μg/cm^2	3.8 μg/tick	–	–	100%	–	–	–	100%
CCC(CC)O/N=C(\C)c1cc(Cl)ccc1NS(=O)(=O)C(F)(F)F [Compound 174]	–	2.9 μg/tick	–	–	–	0.1 μg/cm^2	–	100%	–
C/C(=N\OC1C=CCCC1)c1cc(Cl)ccc1NS(=O)(=O)C(F)(F)F (stereo not shown) [Compound 175]	–	4.0 μg/tick	–	–	–	0.1 μg/cm^2	–	100%	–
CCCCO/N=C(\CC)c1cc(Cl)ccc1NS(=O)(=O)C(F)(F)F [Compound 245]	0.09^D μg/cm^2	3.9 μg/tick	–	–	100%	–	–	–	100%
CC(C)=CCO/N=C(\C)c1cc(Cl)ccc1NS(=O)(=O)C(F)(F)F [Compound 249]	1.3^D μg/cm^2	3.3 μg/tick	–	–	100%	–	–	–	100%
